Legend:
full length PDK1 [1] = biological target: T1, full length PDK1 (Homo sapiens, UniProt O15530); assay: PDK1 enzyme assays (substrate phosphorylation: LEADseeker scintillation proximity, TR-FRET, PDKtide); assay type: biochemical; conditions: in at least one experimental run, read-out: IC50 against full length PDK1
T1 construct: Full-length human 3-Phosphoinositide Dependent protein Kinase-1; made in house; host or cells: baculovirus / Sf9 insect cells
T1 sequence (O15530 1-556): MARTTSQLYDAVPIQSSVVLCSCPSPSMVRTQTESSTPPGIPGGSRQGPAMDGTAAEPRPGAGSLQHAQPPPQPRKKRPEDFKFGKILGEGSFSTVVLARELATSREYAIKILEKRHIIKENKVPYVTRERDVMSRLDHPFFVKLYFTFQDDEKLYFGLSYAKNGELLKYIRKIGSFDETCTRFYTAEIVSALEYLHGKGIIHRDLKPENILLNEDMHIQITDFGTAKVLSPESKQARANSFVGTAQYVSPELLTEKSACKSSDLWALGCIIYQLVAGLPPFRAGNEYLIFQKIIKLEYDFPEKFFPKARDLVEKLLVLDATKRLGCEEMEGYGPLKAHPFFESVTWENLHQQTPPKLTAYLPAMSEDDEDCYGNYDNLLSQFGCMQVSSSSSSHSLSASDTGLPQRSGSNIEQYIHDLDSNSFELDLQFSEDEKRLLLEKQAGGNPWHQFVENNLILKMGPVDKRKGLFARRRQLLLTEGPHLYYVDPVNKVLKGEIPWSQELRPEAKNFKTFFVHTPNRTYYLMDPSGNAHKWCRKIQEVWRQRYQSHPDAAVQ
Method: Substrate phosphorylation assays are carried out as follows:
Biotinylated-hAKT1: Human AKT1 (containing amino acid residues 136-480, as annotated by National Center for Biotechnology Information (NCBI) accession number AAL55732.1, with a MetLysLysHis6 N-terminal addition) is purified to >90% from lysate of baculovirus expression by Nickel Chelating ProBond resin (InVitrogen), Q-Sepharose Fast Flow, and Superdex 200 size exclusion chromatography. Biotinylation is achieved using EZ-Link Sulfo-NHS-LC Biotin (Pierce). Samples, in 25 mM HEPES, pH 7.5, 200 mM NaCl, 2 mM DTT, and 30% glycerol are stored at −80C until use.
(§1) Full-length human 3-Phosphoinositide Dependent protein Kinase-1 (hPDK1; National Center for Biotechnology Information (NCBI) accession number AAH39158.1 with a MetGlyHis6 N-terminal addition) is purified from baculovirus expression in Sf9 cells. Purity of approximately 80% is achieved by the use of chelation chromatography (Ni-NTA Superflow) and desalting columns. Samples, in 25 mM HEPES, 150 mM NaCl, 2.5 mM DTT, 0.05% Triton, 30% glycerol, pH 8.0, are stored at −80° C. until use.
The 39 amino acid biotinylated-PDKtide peptide Seq. ID No. 1: (Biotin-Ahx-[…]) was custom synthesized by 21st Century Biochemicals. […] The concentration was confirmed by quantitative amino acid analysis.
Scintillation Proximity (LEADseeker) Kinase Assay of Purified hPDK1:
Assays are performed in 384-well microtiter plates (Greiner, Catalog No. 784075). The reaction volume (10 μl) contains, in final concentrations, 25 mM MOPS (pH 7.5), 10 mM MgCl2, 50 mM KCl, 0.1 mg/ml BSA, 1 μM ATP, 3 uCi/ml ^33PγATP, 5 mM DTT, 1 mM CHAPS or 0.05% Tween20, 0.35 μM AKT1 biotinylated protein, and 10 nM hPDK1.
Compounds, titrated in DMSO, are evaluated at eleven concentrations ranging from 50 μM to 2 μM. […] Reactions are stopped after 3 hours at room temperature by the addition of 50 mM EDTA, 5 mg/ml LEADseeker beads (GE Healthcare) in PBS (10 ul). Beads are allowed to settle overnight, and samples are imaged on Viewlux (PerkinElmer).
(§2) The data for compound concentration responses were plotted as % Inhibition, calculated with the data reduction formula 100*(1−[(U1−C2)/(C1−C2)]), versus concentration of compound, where
(§3) Data were fitted to the curve described by:
TR-FRET Kinase Assay of Purified hPDK1:
Assays are performed in 384-well microtiter plates (Greiner, Catalog No. 784076).
As previously described for the Scintillation Proximity protocol, hPDK1 is pre-incubated (30 minutes at room temperature) with compounds before initiating phosphorylation of AKT1 by addition of substrate to the hPDK1 and compound mix. Reactions are stopped after 4-6 hours at room temperature by the addition to final concentrations of 0.02 M EDTA, 0.0875 μM Streptavidin APC (PerkinElmer), 0.03 μM AKT1 (phospho T308) antibody (Abcam Inc.), 0.00375 μM Lance Eu-labeled anti rabbit IgG Antibody (PerkinElmer). Antibody binding reaches equilibrium in 30 minutes before signal is read on an EnVision™ 2103 Multilabel Reader (PerkinElmer). APC Signals are normalized to Europium signal. Data processing is the same as described for the Scintillation Proximity assay with the exception of the generation of the “C2” control by addition of buffer without hPDK1 to control wells at t=0 instead of EDTA.
(§4) Scintillation Proximity (LEADseeker) Kinase Assay of Purified hPDK1 using Biotinylated-PDKtide Peptide:
(§5) Assays are performed in 384-well microtiter plates (Greiner, Catalog No. 784075). The reaction volume (10 μl) contains, in final concentrations, 25 mM MOPS (pH 7.5), 10 mM MgCl2, 50 mM KCl, 0.1 mg/ml BSA, 1 μM ATP, 3 uCi/ml ^33PγATP, 5 mM DTT, 0.5 mM CHAPS, 1 μM biotinylated-PDKtide peptide, and 0.5 nM hPDK1.
Compounds, titrated in DMSO, are evaluated at eleven concentrations ranging from 25 μM to 0.4 pM. […] Reactions are stopped after 4 hours at room temperature by the addition of 50 mM EDTA, 5 mg/ml LEADseeker beads (GE Healthcare) in PBS (10 ul).

full length PDK1 [2] = biological target: T1, full length PDK1; assay: Scintillation Proximity (LEADseeker) kinase assay of purified hPDK1 using biotinylated-PDKtide peptide; assay type: biochemical; conditions: in at least one experimental run; PDKtide substrate; read-out: IC50 against full length PDK1 using the PDKtide substrate assay
Method: as §1
The 39 amino acid biotinylated-PDKtide peptide Seq. ID No. 1: (Biotin-Ahx-[…]) was custom synthesized by 21st Century Biochemicals. The peptide was >95% pure and dissolved in HPLC grade water to give a final concentration of 1.1 mM. The concentration was confirmed by quantitative amino acid analysis.
as §4, §5
Compounds, titrated in DMSO, are evaluated at eleven concentrations ranging from 25 μM to 0.4 pM. […] No effect on activity relative to controls without DMSO is observed for hPDK1 at these DMSO amounts. hPDK1 is pre-incubated, 30 minutes at room temperature, with compounds before initiating phosphorylation of biotinylated-PDKtide peptide by addition of substrate to hPDK1/compound. Reactions are stopped after 4 hours at room temperature by the addition of 50 mM EDTA, 5 mg/ml LEADseeker beads (GE Healthcare) in PBS (10 ul). Beads are allowed to settle overnight, and samples are imaged on Viewlux (PerkinElmer).
as §2, §3
The results for each compound were recorded as pIC50 calculated as follows: […]

[3] = system: AKT phosphorylation at T308 in PC-3 cells; assay: Phospho-AKT (T308) ELISA in PC3 cells; assay type: cell-based; conditions: Homo sapiens, 6 hours compound treatment, in at least one experimental run, read-out: IC50 for inhibition of AKT phosphorylation at T308 in PC-3 cells
Method: Phospho-AKT (S473, T308, Total AKT) and phospho-RSK ELISA
PC3 cells (ATCC, Manassas, Va.) were plated in 96-well flat bottom plates (Corning, Lowell, Mass.) at a density of 15,000 cells/well in RPMI 1640 medium supplemented with 10% FBS. Cells were incubated at 37° C., 5% CO2 for 18-20 h. Compounds (dissolved in 100% DMSO) were diluted in an 11-point 3-fold dilution in DMSO. Compound dilution stocks were further diluted in RPMI 1640 with 10% FBS and added to each cell well. DMSO without compound was used in control wells. Final concentration of DMSO in each well was 0.15%. After 6 hours at 37° C. cells were washed with cold PBS (without calcium or magnesium) and lysed in lysis buffer (Meso Scale Discovery, Gaithersburg, Md.) supplemented with 1 protease inhibitor tablet/10 ml (Roche, Indianapolis, Ind.), 10 mM NaF, and 200 μl/10 ml Sigma phosphatase inhibitor 1 & 2 (Sigma Aldrich, St Louis, Mo.) for 30 min at 4° C. All washes were performed on a Bio Tek ELx405 plate washer (Bio Tek Instruments, Winooski, Vt.).
ELISA plates (Meso Scale Discovery; AKT Duplex, cat. N41100B-1; phospho AKT, cat. N411CAB-1; RSK, cat. N41ZB-1) were prepared by the addition of blocking buffer (3% Blocker A diluted in wash buffer (Meso Scale Discovery) for AKT duplex assay and phospho AKT assays; 5% Blocker A/1% Blocker B in Tris-buffered saline for RSK) for 1 hour and washed with wash buffer. Lysates were transferred to assay wells and incubated overnight at 4° C. Following washing with wash buffer, detection buffer (1% Blocker A in wash buffer for AKT duplex and phospho AKT or 1% Blocker A in TBS for RSK) with appropriate antibodies was added. Detection of AKT duplex and phospho AKT was carried out using a sulfo-tagged detection antibodies (Meso Scale Discovery). Detection of phospho-RSK was carried out sequentially with anti phospho-RSK1 (S221)/RSK2 (S227) (R&D systems, Minneapolis, Minn., cat. AF892) and goat anti-rabbit sulfo-tag antibody (cat R32AB-1; Meso Scale Discovery). Plates were incubated for 1 hour at room temperature and washed with wash buffer. Plates were read on a SECTOR™ Imager 6000 (Meso Scale Discovery) using Workbench software (Meso Scale Discovery) following addition of read buffer (Meso Scale Discovery) to each well. For analysis, phospho-AKT (S473) signals were normalized to total AKT, while phospho-AKT (T308) and phospho-RSK signals were analyzed without normalization. All values were expressed as percent of the DMSO-treated controls. IC50s were determined from inhibition curves using XLfit4 software (IDBS, Guildford, UK).

SMILES | IC50 (full length PDK1 [1]) [nM] | IC50 (full length PDK1 [2]) [nM] | IC50 [3] [nM]
Nc1nc(NC2(Cc3ccccc3)CC2)cc(-c2ccc3c(N)n[nH]c3c2)n1 [Example 61, 6-(3-Amino-1H-indazol-6-yl)-N^4-[1-(phenylmethyl)cyclopropyl]-2,4-pyrimidinediamine] | < 100 | 10 | –
CC[C@@H]1CO[C@H](C(=O)NC2CCCCC2)CN1c1cc(-c2ccc3c(N)n[nH]c3c2)nc(N)n1 [Example 173, (2S,5R)-4-[2-Amino-6-(3-amino-1H-indazol-6-yl)-4-pyrimidinyl]-N-cyclohexyl-5-ethyl-2-morpholinecarboxamide] | < 20 | 7.9 | –
CC[C@@H]1COCCN1c1cc(-c2ccc3c(N)n[nH]c3c2)nc(NC)n1 [Example 177, 6-[6-[(3R)-3-Ethyl-4-morpholinyl]-2-(methylamino)-4-pyrimidinyl]-1H-indazol-3-amine] | < 150 | 25 | –
COc1cc(-c2cc(N3C[C@H](C)C[C@@H](NC(=O)OC(C)(C)C)C3)nc(N)n2)cc2[nH]nc(N)c12 [Example 214, 1,1-Dimethylethyl((3R,5R)-1-[2-amino-6-[3-amino-4-(methyloxy)-1H-indazol-6-yl]-4-pyrimidinyl]-5-methyl-3-piperidinyl)carbamate] | < 50 | 2 | –
C[C@@H]1C[C@@H](N(C)C(=O)OC(C)(C)C)CN(c2cc(-c3ccc4c(N)n[nH]c4c3)nc(N)n2)C1 [Example 221, 1,1-Dimethylethyl{(3R,5R)-1-[2-amino-6-(3-amino-1H-indazol-6-yl)-4-pyrimidinyl]-5-methyl-3-piperidinyl}methylcarbamate] | < 50 | – | < 1000
